Reference: article PMC12345137 (mBio, 2025)
Like-named read-outs stand apart in the source and are kept apart here.

Tests used:
[1] = biological target: S. lugdunensis agr-I (Staphylococcus lugdunensis, UniProt Q8VSW5); assay: cell-based; conditions: fluorescent reporter strain; peptides tested at 1000, 50, 2.5, 0.125 nM or in dose-response
Method: (§1) Peptides were evaluated for the ability to interfere with agr-mediated quorum sensing in S. aureus (AH1677, AH430, AH1747, and AH1872 for agr-I–IV, respectively) ([40]) using reporter strains expressing yellow fluorescent protein (YFP) upon agr activation. Interference with agr-mediated quorum sensing in S. epidermidis (AH3408, AH3623, and AH3409 for agr-I–III, respectively) ([45]), and S. lugdunensis (AH4031 for agr-I) ([37]) was evaluated using reporter strains expressing superfolder green fluorescent protein (sGFP) upon agr activation. Overnight cultures of the reporter strains were grown in TSB medium containing chloramphenicol (CAM, 10 μg/mL for S. aureus) or erythromycin (ERM, 10 μg/mL of S. epidermidis and S. lugdunensis) and diluted 1:100 in fresh TSB medium containing the same antibiotic. Assays were performed in sterile black 96-well plates with a clear bottom. […] DMSO stock solutions of peptides (1 mM) were diluted in TSB media and added (15 μL) in technical triplicate to the 96-well plate, followed by diluted bacterial overnight cultures (135 μL). Control wells for 100% agr activity were wells replacing the peptide solution with TSB medium (15 μL). […] Wells containing 150 μL TSB medium were used to measure background fluorescence. The 96-well plates were incubated in a humidified incubator at 37°C shaking at 1,000 rpm for 22–24 h and fluorescence (for GFP: excitation 479 nm, emission 520 nm; for YFP: excitation 500 nm, emission 541 nm; automatic gain), and OD600 values were subsequently measured using a plate reader. Background fluorescence was subtracted from all wells and further normalized to the corresponding OD600 value of the respective wells. The average fluorescence of control wells was used as a relative measure for 100% activation of the agr-circuit, and bar graphs were generated using GraphPad Prism 10.4 software. All assays were performed in at least a biological duplicate.
(§2) Overnight cultures of the reporter strains were grown in TSB medium containing chloramphenicol (CAM, 10 μg/mL for S. aureus) or erythromycin (ERM, 10 μg/mL of S. epidermidis and S. lugdunensis) and diluted 1:100 in fresh TSB medium containing the same antibiotic. Assays were performed in sterile black 96-well plates with clear bottoms. Peptide solutions (15 μL) in 1:5 serial dilutions from DMSO stock solutions (1 mM) in TSB medium were added to the 96-well plate in technical duplicate followed by diluted bacterial overnight cultures (135 μL). Control wells for 100% agr activity were wells replacing the peptide solution with TSB medium (15 μL). Wells containing 150 μL TSB medium were used to measure background fluorescence. The 96-well plates were incubated in a humidified incubator at 37°C shaking at 1,000 rpm for 22–24 h and fluorescence (for GFP: excitation 479 nm, emission 520 nm; for YFP: excitation 500 nm, emission 541 nm; automatic gain), and OD600 values were subsequently measured using a plate reader. Background fluorescence was subtracted from all wells and further normalized to the corresponding OD600 value of the respective wells. The average fluorescence of control wells was used as a relative measure for 100% activation of the agr-circuit. Relative agr activity was plotted to obtain IC50 values by non-linear regression with variable slope using GraphPad Prism 10.4 software. All assays were performed in biological triplicate.

[2] = biological target: T1, SA AgrC-II (Staphylococcus aureus, UniProt O33587); assay: β-Lactamase assay, reporter strain RN10829 (P2-agrA:P3-blaZ) with pagrC-II; type: cell-based; conditions: 100 nM cognate AIP; ± SEM; -b = no inhibition recorded at the highest AIP concentration tested; -a = only partial inhibition observed; this study (curves in Fig. S20)
T1 sequence (O33587 entry or part of it): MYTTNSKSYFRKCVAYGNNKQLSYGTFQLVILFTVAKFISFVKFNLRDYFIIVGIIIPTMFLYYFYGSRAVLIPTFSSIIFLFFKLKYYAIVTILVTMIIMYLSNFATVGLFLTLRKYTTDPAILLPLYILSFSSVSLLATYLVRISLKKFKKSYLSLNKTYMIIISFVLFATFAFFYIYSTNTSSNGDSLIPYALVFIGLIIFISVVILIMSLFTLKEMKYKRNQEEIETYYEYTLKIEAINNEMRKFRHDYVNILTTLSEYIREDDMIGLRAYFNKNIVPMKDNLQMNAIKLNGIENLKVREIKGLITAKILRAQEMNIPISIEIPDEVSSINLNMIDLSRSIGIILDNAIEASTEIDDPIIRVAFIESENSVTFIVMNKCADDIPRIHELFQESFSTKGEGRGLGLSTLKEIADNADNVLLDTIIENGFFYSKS
Excerpt: (§3) The β-lactamase reporter strain RN10829 (P2-agrA:P3-blaZ) ([62]), with pagrC-I ([63]), pagrC-II, pagrC-III, or pagrC-IV ([11]), substituting the native agr locus with a chromosomal integration of P2-agrA and P3-blaZ and a plasmid from which a wild-type variant of the corresponding AgrC is expressed, was used to assess inhibition and activation of the AgrC receptor via β-lactamase activity in response to varying concentrations of the QS modulating peptides. Overnight cultures of the reporter strains in TSB medium were diluted 1:250 in fresh TSB medium and grown to OD600 = 0.35–0.40 (early exponential phase) at 37°C. Peptide solutions (10 μL) in 1:10 serial dilutions from DMSO stock solutions (1 mM) in TSB medium (final concentrations = 10 μM–10 pM) were added to each well of a clear 96-well plate as well as solutions (10 μL) of cognate AIP (final concentration = 100 nM) in TSB medium followed by 80 μL of bacterial cells. Control wells for 100% β-lactamase activity were wells replacing peptide solution with TSB media (10 μL), and control wells for 0% β-lactamase activity were wells replacing both peptide and cognate AIP solutions with TSB medium (20 μL). The 96-well plates were incubated at 37°C shaking at 200 rpm for 1 h and immediately frozen down at −80°C to minimize growth during nitrocefin treatment. Next, the 96-well plates were thawed, and OD600 values were determined using a plate reader followed by the addition of 50 μL of nitrocefin solution to the wells (final concentration = 33.3 μg/mL). β-Lactamase activity was monitored at OD486 every 20 s for 10 min at 37°C using a plate-reader. Linear nitrocefin conversion rates were plotted to obtain IC50 values by non-linear regression with variable slope using GraphPad Prism 10.4 software. Assays were performed at least as duplicate determinations in biological triplicate.

[3] = biological target: T2, SA AgrC-III (Staphylococcus aureus, UniProt O33590); assay: β-Lactamase assay, reporter strain RN10829 (P2-agrA:P3-blaZ) with pagrC-III; type: cell-based; conditions: 100 nM cognate AIP; ± SEM; -b = no inhibition recorded at the highest AIP concentration tested; -a = only partial inhibition observed; this study (curves in Fig. S21)
T2 sequence (O33590 entry or part of it): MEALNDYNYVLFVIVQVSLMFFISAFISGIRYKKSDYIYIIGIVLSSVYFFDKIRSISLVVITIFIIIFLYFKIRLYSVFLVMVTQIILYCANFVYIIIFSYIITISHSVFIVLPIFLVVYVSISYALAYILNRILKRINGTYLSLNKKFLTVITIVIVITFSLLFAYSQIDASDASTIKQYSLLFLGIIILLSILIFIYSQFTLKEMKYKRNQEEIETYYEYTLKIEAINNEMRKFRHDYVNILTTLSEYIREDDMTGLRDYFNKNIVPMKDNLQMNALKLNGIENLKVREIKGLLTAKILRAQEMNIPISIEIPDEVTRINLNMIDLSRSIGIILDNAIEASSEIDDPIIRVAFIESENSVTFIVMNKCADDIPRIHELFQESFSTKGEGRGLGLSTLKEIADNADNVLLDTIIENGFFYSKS
Excerpt: as §3

[4] = biological target: T3, SA AgrC-IV (Staphylococcus aureus, UniProt Q309Z2); assay: β-Lactamase assay, reporter strain RN10829 (P2-agrA:P3-blaZ) with pagrC-IV; type: cell-based; conditions: 100 nM cognate AIP; ± SEM; -b = no inhibition recorded at the highest AIP concentration tested; -a = only partial inhibition observed; this study (curves in Fig. S22)
T3 sequence (Q309Z2 entry or part of it): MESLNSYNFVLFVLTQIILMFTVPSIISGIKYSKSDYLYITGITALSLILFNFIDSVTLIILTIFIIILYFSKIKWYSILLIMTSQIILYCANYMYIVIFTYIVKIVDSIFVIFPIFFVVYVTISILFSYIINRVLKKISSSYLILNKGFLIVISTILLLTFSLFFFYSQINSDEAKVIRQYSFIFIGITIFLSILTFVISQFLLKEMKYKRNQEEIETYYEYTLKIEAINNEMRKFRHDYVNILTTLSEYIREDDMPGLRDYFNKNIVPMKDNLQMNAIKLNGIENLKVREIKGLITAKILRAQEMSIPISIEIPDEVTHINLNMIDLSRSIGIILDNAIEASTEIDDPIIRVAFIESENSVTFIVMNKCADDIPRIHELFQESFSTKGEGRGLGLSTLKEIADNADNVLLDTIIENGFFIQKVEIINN
Excerpt: as §3

[5] = test system: S. aureus (SA) agr-I; conditions: fluorescence, cited from earlier work; for IC50: ref (13)
[6] = test system: S. aureus (SA) agr-II; conditions: fluorescence, cited from earlier work; for IC50: ref (13)
[7] = test system: S. aureus (SA) agr-III; conditions: fluorescence, cited from earlier work; for IC50: ref (13)
[8] = test system: S. aureus (SA) agr-IV; conditions: fluorescence, cited from earlier work; for IC50: ref (13)
[9] = test system: S. epidermidis (SE) agr-I; conditions: fluorescence, cited from earlier work
[10] = test system: S. epidermidis (SE) agr-II; conditions: fluorescence, cited from earlier work; for IC50: ref (13)
[11] = test system: S. epidermidis (SE) agr-III; conditions: fluorescence, cited from earlier work; for IC50: ref (13)
[12] = biological target: T1, SA AgrC-II; conditions: 100 nM cognate AIP, ± SEM, -b = no inhibition recorded at the highest AIP concentration tested, determined previously, ref (1), cited from earlier work; for IC50: read-out: IC50, SA AgrC-II, b-lactamase assay
[13] = biological target: T2, SA AgrC-III; conditions: 100 nM cognate AIP, ± SEM, determined previously, ref (1), cited from earlier work
[14] = biological target: S. aureus agr-IV (Staphylococcus aureus, UniProt Q309Z2); assay: cell-based; type: cell-based; conditions: fluorescent reporter strain; peptides tested at 1000, 50, 2.5, 0.125 nM or in dose-response
Sequence of S. aureus agr-IV (Q309Z2 entry or part of it): as above
Method: as §1, §2

[15] = biological target: T3, SA AgrC-IV; conditions: ± SEM, determined previously, ref (1), cited from earlier work; for EC50: read-out: EC50, SA AgrC-IV, b-lactamase assay; for IC50, SA AgrC-IV, b-lactamase assay: 100 nM cognate AIP, -b = no inhibition recorded at the highest AIP concentration tested
[16] = only partial inhibition observed, read-out: IC50, SA AgrC-III, b-lactamase assay, only partial inhibition observed (footnote a)
[17] = -b = no inhibition recorded at the highest AIP concentration tested

Sequence of S. lugdunensis agr-I (Q8VSW5 entry or part of it): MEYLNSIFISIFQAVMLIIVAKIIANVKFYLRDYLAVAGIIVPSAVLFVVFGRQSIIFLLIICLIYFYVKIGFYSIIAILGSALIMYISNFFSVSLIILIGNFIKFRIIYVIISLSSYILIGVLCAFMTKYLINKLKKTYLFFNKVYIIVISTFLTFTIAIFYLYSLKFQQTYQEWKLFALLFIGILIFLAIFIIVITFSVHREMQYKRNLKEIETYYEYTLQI

S. Simulans AIP-II/III N-Me2 [compound 56]
QS interaction in words (inhibition / activation), S. lugdunensis agr-I [1]: remained highly potent

S. epidermidis AIP-II [compound 6]
IC50, SA AgrC-II, b-lactamase assay [2]: -b
IC50, SA AgrC-III, b-lactamase assay [3]: -b
IC50, SA AgrC-IV, b-lactamase assay [4]: -b
inhibition at 100 nM, SA agr-I ([5]; at 100 nM, ref (11)): no inhibition
inhibition at 100 nM, SA agr-II ([6]; at 100 nM, ref (11)): no inhibition
inhibition at 100 nM, SA agr-III ([7]; at 100 nM, ref (11)): no inhibition
inhibition at 100 nM, SA agr-IV ([8]; at 100 nM, ref (11)): no inhibition
effect from supernatant (% inhibition, activation or no effect), SE agr-I ([9]; from supernatant, ref (18)): ~ 90%
IC50 ([9]; ref (11)): 9.64 nM
effect at 10 µM, SE agr-II ([10]; at 10 µM, ref (11)): activation
effect from supernatant (% inhibition, activation or no effect), SE agr-II ([10]; from supernatant, ref (18)): activation
effect at 10 µM, SE agr-III ([11]; at 10 µM, ref (11)): no effect
effect from supernatant (% inhibition, activation or no effect), SE agr-III ([11]; from supernatant, ref (18)): no effect

S. haemolyticus AIP-I [compound 15]
IC50, SA AgrC-II, b-lactamase assay [12]: -b
IC50 ([13]; -b = no inhibition recorded at the highest AIP concentration tested, read-out: IC50, SA AgrC-III, b-lactamase assay): 340 ± 91 nM

S. hominis AIP-II [compound 11]
IC50 [5]: 15 nM
IC50 [6]: 2110 nM
IC50 [7]: 3 nM
IC50 [8]: 1130 nM
IC50 ([9]; ref (13)): 20 nM
IC50 [10]: 19 nM
IC50 [11]: 62 nM

S. hominis AIP-III [compound 12]
QS interaction in words (inhibition / activation), S. aureus agr-IV [14]: activated
IC50 [12]: 580 ± 61 nM
IC50 [13, 16]: 220 ± 46 nM
EC50 [15]: 54 ± 5 nM
IC50 [5]: 11 nM
IC50 [6]: 4 nM
IC50 [7]: 6 nM
IC50 ([9]; ref (13)): 4 nM
IC50 [10]: 3 nM
IC50 [11]: 3 nM

S. hominis AIP-IV [compound 13]
IC50 [5]: 128 nM
IC50 [6]: 140 nM
IC50 [7]: 37 nM
IC50 ([9]; ref (13)): 237 nM
IC50 [10]: 93 nM
IC50 [11]: 28 nM

S. hominis AIP-V [compound 14]
IC50 [5]: 43 nM
IC50 [6]: 59 nM
IC50 [7]: 4 nM
IC50 [8]: 3810 nM
IC50 ([9]; ref (13)): 10 nM
IC50 [10]: 22 nM
IC50 [11]: 2 nM

S. lugdunensis AIP-II [compound 9]
IC50, SA AgrC-II, b-lactamase assay [12]: -b
IC50, SA AgrC-III, b-lactamase assay [13, 17]: -b
IC50, SA AgrC-IV, b-lactamase assay [15]: -b

S. saprophyticus AIP-I [compound 19]
IC50, SA AgrC-III, b-lactamase assay [13, 17]: -b
IC50, SA AgrC-IV, b-lactamase assay [15]: -b

S. schleiferi AIP-I [compound 30]
IC50 [12]: 86 ± 6 nM
IC50 [13, 16]: 80 ± 16 nM
EC50 [15]: 31 ± 6 nM
